# Calls of active or inactive are those of the source.
# What was measured:
# [1] = Luminescence Cell-Based Dose Response HTS to Identify Inhibitors of 5'UTR Stem-Loop Driven Prion Protein mRNA Translation in H4 Neuroglioblastoma Cells. [Related pubchem assays: 1827 (Project Summary), 1813 (Primary HTS)]; assay type: functional
# [2] = alpha-synuclein stem-loop luciferase translation blockers – H4 neuroglioma cells, luminescence, confirmation (AID 1988); assay type: functional, cell-based
# [3] = A549 cell cytotoxicity, dose response, cytotoxicity control, plate reader, cherry-pick, antagonist series (AID 743412); assay type: functional, cell-based
# [4] = blockers of bursicon-stimulated LGR2 cAMP reporter – cell-based, HEK293, CRE-luciferase reporter, cherry pick, set 2, dose response (AID 743343); assay type: functional;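 note: transfected cells were stimulated with diluted bursicon conditioned medium after compound addition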
# [5] = blockade of melanocortin 4 receptor signaling – cell-based, plate reader, cherry pick, counter-screen for LGR2 antagonist project, dose response (AID 743444); assay type: functional;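 note: transfected HEK 293 cells stimulated with alpha-MSH peptide; potency of inhibitors of the alpha-MSH evoked signal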
# [6] = molecular target: T1, DNA repair protein RAD52 homolog (Homo sapiens, UniProt P43351); assay type: functional, biochemical
# T1 sequence (P43351 whole entry): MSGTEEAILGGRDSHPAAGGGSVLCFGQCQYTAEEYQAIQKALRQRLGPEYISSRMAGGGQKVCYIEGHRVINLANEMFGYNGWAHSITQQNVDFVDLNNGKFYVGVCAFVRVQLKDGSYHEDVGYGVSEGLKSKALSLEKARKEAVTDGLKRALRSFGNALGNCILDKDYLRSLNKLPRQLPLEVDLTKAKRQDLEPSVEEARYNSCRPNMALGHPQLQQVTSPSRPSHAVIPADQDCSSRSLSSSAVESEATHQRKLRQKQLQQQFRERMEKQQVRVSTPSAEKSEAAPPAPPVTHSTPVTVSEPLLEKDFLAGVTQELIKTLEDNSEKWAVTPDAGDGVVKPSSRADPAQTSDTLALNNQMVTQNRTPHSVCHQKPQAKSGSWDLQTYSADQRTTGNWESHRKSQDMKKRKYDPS
# Caspase-3 = molecular target: T2, Caspase-3 (Homo sapiens, UniProt P42574); assay type: functional;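 note: Dose-response selectivity test against caspase-3 for candidate inhibitors of sentrin-specific proteases (SENPs)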
# T2 sequence (P42574 whole entry): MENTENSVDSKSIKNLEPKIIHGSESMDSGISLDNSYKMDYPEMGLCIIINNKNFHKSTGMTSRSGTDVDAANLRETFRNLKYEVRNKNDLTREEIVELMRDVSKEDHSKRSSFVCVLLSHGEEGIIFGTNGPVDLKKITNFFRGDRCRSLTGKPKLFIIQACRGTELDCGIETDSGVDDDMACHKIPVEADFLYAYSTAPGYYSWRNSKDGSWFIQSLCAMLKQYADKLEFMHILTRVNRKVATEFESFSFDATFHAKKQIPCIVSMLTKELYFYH
# [7] = molecular target: T3, Sentrin-specific protease 7 (Homo sapiens, UniProt Q9BQF6); assay type: functional;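 note: Luminescence-based dose-response confirmation of ultra-high-throughput screening hits, measuring inhibition of SENP7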
# T3 sequence (Q9BQF6 whole entry): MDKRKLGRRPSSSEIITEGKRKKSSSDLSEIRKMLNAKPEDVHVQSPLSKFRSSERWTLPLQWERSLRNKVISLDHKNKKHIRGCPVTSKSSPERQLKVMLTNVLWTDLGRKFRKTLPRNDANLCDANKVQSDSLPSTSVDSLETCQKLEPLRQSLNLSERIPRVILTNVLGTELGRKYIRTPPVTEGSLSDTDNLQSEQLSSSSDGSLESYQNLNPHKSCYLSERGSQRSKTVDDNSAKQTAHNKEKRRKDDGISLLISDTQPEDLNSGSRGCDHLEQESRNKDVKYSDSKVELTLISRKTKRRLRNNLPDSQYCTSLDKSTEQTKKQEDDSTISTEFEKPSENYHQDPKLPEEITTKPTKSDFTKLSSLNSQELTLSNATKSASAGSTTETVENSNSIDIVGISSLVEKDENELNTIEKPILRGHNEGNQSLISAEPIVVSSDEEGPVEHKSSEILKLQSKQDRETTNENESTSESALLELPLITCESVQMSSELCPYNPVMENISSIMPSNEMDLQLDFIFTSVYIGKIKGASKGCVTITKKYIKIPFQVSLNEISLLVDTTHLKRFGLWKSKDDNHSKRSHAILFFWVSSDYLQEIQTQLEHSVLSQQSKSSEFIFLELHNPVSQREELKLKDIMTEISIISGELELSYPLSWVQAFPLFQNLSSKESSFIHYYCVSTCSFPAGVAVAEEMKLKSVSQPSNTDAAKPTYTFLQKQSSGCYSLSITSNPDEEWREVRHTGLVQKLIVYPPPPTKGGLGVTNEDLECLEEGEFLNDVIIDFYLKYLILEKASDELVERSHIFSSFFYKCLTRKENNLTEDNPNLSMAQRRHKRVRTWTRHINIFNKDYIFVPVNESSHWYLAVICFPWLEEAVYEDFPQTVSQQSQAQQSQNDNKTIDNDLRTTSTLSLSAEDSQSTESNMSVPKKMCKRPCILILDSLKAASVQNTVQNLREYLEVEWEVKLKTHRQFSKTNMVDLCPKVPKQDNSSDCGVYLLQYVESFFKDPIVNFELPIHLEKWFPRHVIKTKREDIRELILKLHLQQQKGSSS
# [8] = molecular target: T4, Sentrin-specific protease 6 (Homo sapiens, UniProt Q9GZR1); assay type: functional;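 note: Luminescence-based dose-response confirmatory assay of SENP6 inhibition, following up an ultra-high-throughput screen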
# T4 sequence (Q9GZR1 whole entry): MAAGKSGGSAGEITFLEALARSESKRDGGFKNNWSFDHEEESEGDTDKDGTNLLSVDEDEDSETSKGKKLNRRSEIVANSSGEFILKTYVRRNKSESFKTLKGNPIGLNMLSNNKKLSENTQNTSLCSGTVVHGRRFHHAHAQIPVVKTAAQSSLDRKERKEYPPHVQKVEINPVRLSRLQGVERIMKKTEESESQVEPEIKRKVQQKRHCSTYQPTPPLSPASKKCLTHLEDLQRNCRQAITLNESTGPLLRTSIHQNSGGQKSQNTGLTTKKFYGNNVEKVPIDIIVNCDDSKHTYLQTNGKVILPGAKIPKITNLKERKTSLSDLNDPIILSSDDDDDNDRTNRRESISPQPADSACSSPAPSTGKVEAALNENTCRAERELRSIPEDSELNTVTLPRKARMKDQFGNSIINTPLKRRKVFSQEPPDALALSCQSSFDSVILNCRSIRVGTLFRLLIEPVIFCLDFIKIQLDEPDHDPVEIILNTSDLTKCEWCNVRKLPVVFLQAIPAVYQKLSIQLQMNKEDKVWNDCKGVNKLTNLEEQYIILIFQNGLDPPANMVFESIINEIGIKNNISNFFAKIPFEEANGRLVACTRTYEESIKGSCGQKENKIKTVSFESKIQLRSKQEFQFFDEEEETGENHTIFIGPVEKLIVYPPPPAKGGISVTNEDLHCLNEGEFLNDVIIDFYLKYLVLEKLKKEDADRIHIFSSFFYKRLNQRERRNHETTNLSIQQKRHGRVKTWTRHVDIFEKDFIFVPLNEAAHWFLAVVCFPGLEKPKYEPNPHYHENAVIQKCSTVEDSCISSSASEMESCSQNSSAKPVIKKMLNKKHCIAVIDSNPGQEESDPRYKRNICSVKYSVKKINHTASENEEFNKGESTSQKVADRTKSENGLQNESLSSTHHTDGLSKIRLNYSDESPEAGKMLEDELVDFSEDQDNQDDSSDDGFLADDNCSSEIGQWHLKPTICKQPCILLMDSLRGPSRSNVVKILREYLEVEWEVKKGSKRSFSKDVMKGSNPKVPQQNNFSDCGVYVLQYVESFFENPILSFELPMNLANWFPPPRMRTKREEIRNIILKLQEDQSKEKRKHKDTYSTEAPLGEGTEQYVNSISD
# [9] = molecular target: T5, Sentrin-specific protease 8 (Homo sapiens, UniProt Q96LD8); assay type: functional;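 note: luminescence read-out of SENP8 inhibition, dose-response confirmation following an ultra-high-throughput screen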
# T5 sequence (Q96LD8 whole entry): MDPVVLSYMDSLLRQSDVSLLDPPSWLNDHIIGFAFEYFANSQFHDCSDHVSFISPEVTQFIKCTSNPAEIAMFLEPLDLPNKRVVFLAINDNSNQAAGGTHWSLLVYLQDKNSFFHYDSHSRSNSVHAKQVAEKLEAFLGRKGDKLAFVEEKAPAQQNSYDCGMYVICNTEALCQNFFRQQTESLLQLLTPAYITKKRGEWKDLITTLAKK
# [10] = toxicity toward HepG2 liver cells – cell-based, plate reader, cherry-pick, antagonist series, cytotoxicity control, dose response (AID 743416); assay type: functional
# [11] = Trypanosoma cruzi growth suppression in host cells – NIH3T3 host cells, beta-gal luminescence, confirmation (AID 2044); assay type: functional, cell-based;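 note: intracellular parasites grown in NIH/3T3 mouse fibroblasts as host cells; luminescent beta-galactosidase reporter signal from transgenic T. cruzi replicating inside host cells; inhibitors lower the luminescence signal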
# [12] = viability of PTEN-deleted HCT116 cells – cell-based, HCT116 PTEN knockout, dose response (AID 1047); assay type: functional;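 note: HCT116 colon tumor cells with PTEN knocked out; cells exposed to compound for 60 hours before readout; potency for loss of cell viability measured by luminescence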
# [13] = NIH3T3 cell viability loss – ATP luminescence, mouse fibroblasts, counter-screen, dose response (AID 2010); assay type: functional, cell-based;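 note: cells exposed to compound for about 90 hours before reading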
# [14] = viability of HCT116 lacking mutant beta-catenin – cell-based, human colon tumor, dose response (AID 1045); assay type: functional;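 note: HCT116 colon tumor cells with beta catenin knocked out; cells exposed to compound for 60 hours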
# Estrogen receptor beta [15] = molecular target: T6, Estrogen receptor beta (Homo sapiens, UniProt Q92731);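 note: recombinant ER-beta bound to coactivator SRC1 peptide in presence of estradiol agonist; inhibitors block coactivator peptide binding and lower the FRET signal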
# Estrogen receptor beta [16] = molecular target: T6, Estrogen receptor beta; test: blockers of SRC-3 recruitment to ERβ – biochemical, ELISA, streptavidin-HRP readout, orthogonal assay, confirmation (AID 1060)
# [17] = intracellular Trypanosoma cruzi inhibitors in host cells – cell-based, plate reader, cherry-pick samples, set 3, dose response (AID 651818); assay type: functional;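 note: compounds incubated with infected cells for about four days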
# Paired box protein Pax-8 = Paired box protein Pax-8 (Homo sapiens, UniProt Q06710); test: PAX8 transcriptional activity inhibition in RMG-I – RMG-I cells, luciferase, cherry-pick, dose response (AID 687027); assay type: functional, cell-based;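 note: luciferase reporter driven by Pax8 target thyroperoxidase promoter measured by SteadyGlo luminescence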
# [18] = OVCAR-3 cell viability loss – plate reader, dry powder samples, PAX8 inhibitor project, dose response (AID 743044); assay type: functional, cell-based
# [19] = general cell-killing toxicity readout – plate reader, dry powder samples, cytotoxicity control for PAX8 inhibitor project, dose response (AID 743021); assay type: functional, cell-based
# [20] = rise of 2N DNA cells, HeLa – IC50, dose response (AID 1117349); assay type: functional, cell-based
# [21] = rise of 4N DNA cells, HeLa – IC50, dose response (AID 1117351); assay type: functional, cell-based
# [22] = toxicity toward immortalized ovarian surface epithelium – cell-based, plate reader, dry powder samples, cytotoxicity control for PAX8 inhibitor project, dose response (AID 743045); assay type: functional
# [23] = IGROV1 cell killing – plate reader, dry powder samples, PAX8 inhibitor project, dose response (AID 743043); assay type: functional, cell-based; conditions: IGROV-1
# [24] = OVCAR8 cell viability loss – plate reader, dry powder samples, PAX8 project, dose response (AID 743197); assay type: functional, cell-based; conditions: OVCAR-8
# [25] = Dd2 parasite growth inhibition in erythrocytes – SYBR Green, dry powder samples, set 9, dose response (AID 1159568); assay type: functional, cell-based
# Paired box protein Pax-8, sequence (Q06710 whole entry): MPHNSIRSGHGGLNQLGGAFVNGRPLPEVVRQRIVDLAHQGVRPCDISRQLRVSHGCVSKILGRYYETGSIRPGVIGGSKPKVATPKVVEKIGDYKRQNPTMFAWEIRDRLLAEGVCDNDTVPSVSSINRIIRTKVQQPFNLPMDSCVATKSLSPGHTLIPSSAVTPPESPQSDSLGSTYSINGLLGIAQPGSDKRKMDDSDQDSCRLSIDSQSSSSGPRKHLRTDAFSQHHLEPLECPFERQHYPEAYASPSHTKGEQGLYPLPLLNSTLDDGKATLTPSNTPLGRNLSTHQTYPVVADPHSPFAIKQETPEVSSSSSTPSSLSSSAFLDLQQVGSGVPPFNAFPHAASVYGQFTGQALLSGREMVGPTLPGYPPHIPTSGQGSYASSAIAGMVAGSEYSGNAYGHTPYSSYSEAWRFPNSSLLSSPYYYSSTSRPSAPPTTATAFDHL
# T6 sequence (Q92731 whole entry): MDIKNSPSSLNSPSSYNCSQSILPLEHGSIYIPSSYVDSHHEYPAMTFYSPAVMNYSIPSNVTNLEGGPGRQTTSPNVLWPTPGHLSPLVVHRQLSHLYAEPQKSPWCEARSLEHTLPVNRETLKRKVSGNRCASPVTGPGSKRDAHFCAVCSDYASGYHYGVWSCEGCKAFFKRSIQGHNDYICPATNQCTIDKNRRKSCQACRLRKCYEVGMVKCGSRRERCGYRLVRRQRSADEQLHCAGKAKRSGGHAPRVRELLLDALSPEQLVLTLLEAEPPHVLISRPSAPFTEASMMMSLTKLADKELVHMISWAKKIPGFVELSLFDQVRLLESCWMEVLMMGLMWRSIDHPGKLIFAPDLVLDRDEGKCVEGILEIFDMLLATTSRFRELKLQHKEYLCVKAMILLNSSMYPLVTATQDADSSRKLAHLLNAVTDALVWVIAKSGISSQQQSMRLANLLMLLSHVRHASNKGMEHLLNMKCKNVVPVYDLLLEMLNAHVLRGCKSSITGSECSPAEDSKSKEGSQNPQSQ
smiles,measurement,setting,value
Cc1cnc(NC(=O)COc2ccccc2Cl)s1,EC50,[1],0.491 µM (active)
same,EC50,[2],1.25 µM (active)
same,AC50,[3],> 52 µM (inactive)
same,AC50,[4],2.33 µM (active)
same,AC50,[5],2.3 µM (active)
CCN(CC)CCCN(C(=O)c1ccc(OC)cc1)c1nc(-c2ccc(OC)cc2)cs1,AC50,[6],18.1 µM (active)
COc1ccc(C(=O)Nc2ccc3ccccc3n2)c(OC)c1OC,IC50,Caspase-3,6.1 µM (active)
same,IC50,[7],2.37 µM (active)
same,IC50,[8],2.95 µM (active)
same,IC50,[9],> 100 µM (inactive)
same,AC50,[3],> 52 µM (inactive)
same,AC50,[10],> 52 µM (inactive)
same,AC50,[4],7.06 µM (active)
same,AC50,[5],6.75 µM (active)
CN(C)CCCn1c(SCC(=O)N2c3ccccc3Sc3ccccc32)nc2ccccc2c1=O,EC50,[11],0.268 µM (active)
same,EC50,[12],5.64 µM (active)
same,EC50,[13],> 60 µM (not active)
same,EC50,[14],4.73 µM (active)
same,AC50,[6],17.1 µM (active)
O=S(=O)(NCC(O)COCc1ccco1)c1cccs1 (configuration not stated),IC50,Estrogen receptor beta [15],20.6 µM (active)
same,IC50,Estrogen receptor beta [16],14 µM (not active)
CN(C)CCNC(=O)c1cccc2nc3c(ccc4ccccc43)nc12,AC50,[6],0.501 µM (active)
COc1ccc(S(=O)(=O)N(C)C[C@H]2Oc3c(NC(=O)Nc4ccc(C(F)(F)F)cc4)cccc3C(=O)N([C@@H](C)CO)C[C@H]2C)cc1,AC50,[17],7.67 µM (active)
same,AC50,Paired box protein Pax-8,7.04 µM (active)
same,AC50,[18],66.2 µM (active)
same,AC50,[19],51 µM (active)
CO[C@@H]1[C@@H](OC)[C@H](C)[C@@](O)(CC(=O)O)O[C@H]1[C@H](C)[C@H]1O[C@@]2(CC[C@@](C)([C@H]3CC[C@@](C)([C@@H]4O[C@@H]([C@H]5O[C@](C)(O)[C@H](C)C[C@@H]5C)C[C@@H]4OC4C[C@H](OC)[C@@H](OC)[C@H](C)O4)O3)O2)C[C@H](O)[C@H]1C (some centres not stated),IC50,[20],> 10 µM (inactive)
same,IC50,[21],> 10 µM (inactive)
Cc1ccc(S(=O)(=O)N(C)C[C@H]2Oc3cc(C#Cc4ccncc4)ccc3S(=O)(=O)N([C@@H](C)CO)C[C@H]2C)cc1,AC50,Paired box protein Pax-8,3.15 µM (active)
same,AC50,[22],51.6 µM (active)
same,AC50,[18],4.57 µM (active)
same,AC50,[23],45.3 µM (active)
same,AC50,[24],30.8 µM (active)
O=C(Nc1ccc(F)cc1)N1C[C@@H]2N[C@H](C1)[C@@H]2c1ccc(/C=C/c2ccccc2)cc1,AC50,Paired box protein Pax-8,10.7 µM (active)
same,AC50,[19],23.6 µM (active)
same,AC50,[24],26 µM (active)
CC(=O)Nc1ccn(C2COC(COC(=O)c3ccccc3)O2)c(=O)n1 (configuration not stated),IC50,[20],> 10 µM (inactive)
same,IC50,[21],> 10 µM (inactive)
C[C@@H]1CCCCO[C@@H](CN(C)S(=O)(=O)c2ccc(F)cc2)[C@@H](C)CN([C@@H](C)CO)C(=O)c2cc(N(C)C)ccc2O1,AC50,[25],2.56 µM (active)
COc1ccc(-c2ccccc2[C@@H]2[C@@H](C#N)N(C(=O)NC3CCCCC3)[C@H]2CO)cc1,AC50,[25],7.06 µM (active)
O=S(=O)(c1cccs1)N1CCCCN2[C@H](CO)[C@H](c3ccc(/C=C/c4ccccc4)cc3)[C@H]2C1,AC50,[25],3.42 µM (active)
C[C@@H]1CN([C@H](C)CO)C(=O)c2cccc(NC(=O)c3ccc(-c4nccs4)cc3)c2O[C@H]1CN(C)C(=O)Nc1ccc(C(F)(F)F)cc1,AC50,[25],7.49 µM (active)
